Measurements reported in publication PMC4891657, “Orexin 2 Receptor Antagonism is Sufficient to Promote NREM and REM Sleep from Mouse to Man” (Scientific Reports, 2016).
Entries after “also recorded” stand apart in the source; their conditions may differ. Read-outs that look alike come from different tables or passages of the source.

What was measured:
cataplexy = test: Food-elicited cataplexy test (FECT); type: in vivo, dog; settings: dogs, 20 mg/kg, 1 hour after administration
Method: A standard measure for quantifying narcolepsy with cataplexy in dogs is the food-elicited cataplexy test (FECT).
The FECT was performed essentially as described previously. After a 2-day vehicle run-in period, female dogs (n = 8; Marshall Farms) were treated with MK-1064 (20 mg/kg) or vehicle in a 1-day vehicle x 2-day drug crossover design. Daytime FECTs[32][43][44] with simultaneous video and electrocorticography (ECoG), electromyography (EMG), and electrooculography (EOG) recordings were conducted 1 hour post-dose. Following release into the test room, dogs were remotely monitored while consuming 10 evenly spaced, approximately 1-inch[2] balls of wet dog food (Pedigree® chunk beef). Video and ECoG/EOG/EMG recordings were evaluated for any signs of cataplexy (e.g., collapse, EMG attenuation, sudden-onset REM sleep; see Kushida et al.[43]) and the time needed to consume all 10 balls of food.

[1] = Pharmacokinetics, ascending single-dose study in healthy male subjects; type: in vivo; settings: human, plasma, single oral doses 5 to 250 mg; for half-life: male, po
Method: In the ascending single-dose study, doses of MK-1064 ranging from 5 to 250 mg corresponded with dose-dependent changes in measured plasma levels (Fig. 6a). […] The greatest effects were observed between 1 and 4 hours, and effects greatly diminished 8 hours following treatment, consistent with the time course of plasma concentrations of MK-1064.
(§1) MK-1064 safety, PK and PD were evaluated in a randomised, double-blind, placebo-controlled, alternating panel, single oral ascending-dose first-in-human study (see Fig. 5). Participants were unmedicated healthy male subjects (age 18–45 years) without a history of physical or mental illnesses or sleep abnormalities. Two panels received alternating single ascending oral doses of MK-1064 in up to 5 treatment periods (Panel A: 5, 25, 100 and 200 mg [fasting conditions], 25 mg [fed condition], or matching placebo; Panel B: 10, 50, 150 and 250 mg [all daytime administration], 50 mg [evening administration], or matching placebo). Within each period, subjects were randomized to active treatment (N = 6) and placebo (N = 2) groups. There was a minimum of 3 days between ascending doses occurring between alternating subject panels to enable safety data review; treatments within subject panels were separated by a minimum 7-day washout period. The safety and tolerability of MK-1064 were monitored throughout the study by repeated evaluations of AEs, clinical assessments (semi-recumbent and orthostatic vital signs measurements, 12-lead electrocardiograms (ECGs), physical examinations, neurologic examinations), and safety laboratory tests (chemistry, hematology, urinalysis).
During each treatment period, blood was collected for PK analysis pre-dose and at time points up to 72 hours post-dose. MK-1064 plasma concentrations were determined by reverse phase high-performance liquid chromatography and detected with tandem mass spectrometry. The lower limit of quantitation was 1 ng/mL and the linear calibration range was 1–1000 ng/mL. PK parameters were calculated with WinNonLin 5.2.1. Values below the assay limit of quantification were indicated with a zero value. PD effects on arousal and mood were assessed by the Karolinska Sleepiness Scale (KSS)[45] and Bond and Lader Visual Analogue Scale (VAS)[46] in exploratory endpoints.

sleep/wake stages = test: Polysomnography in telemetered dogs; type: in vivo, dog
Method: The mean time spent in sleep stages was determined in radio-telemetry–implanted mice, rats, and dogs, as described previously[1][14][40][42]. Continuous PSG recordings were performed following oral MK-1064 or vehicle (20% vitamin E d-alpha tocopheryl polyethylene glycol 1000 succinate [TPGS]) administration. In rodents, electrocorticogram (ECoG) and electromyogram (EMG) and locomotor activity measured via radio-telemetry were scored in 10 second epochs to define light sleep (LS; no movement, moderate EMG tone, theta with <50% delta ECoG [0.5–4 Hz]), slow wave sleep (SWS; no gross movement, reduced EMG, >50% delta ECoG) and rapid eye movement sleep (REM; no movement, little to no EMG activity, primarily theta ECoG [4–7 Hz] activity)[42]. Scored data were then grouped and compiled according to condition (vehicle or compound treatment) averaged over the indicated times (30 minutes or 2 hours) and analyzed statistically as previously described[1][14][40][42] […]
Mean times in active wake, NREM I, NREM II, and REM sleep were monitored continuously. Vehicle and compound treatment conditions were consolidated into 24-hour periods for each animal, and the mean time spent in each sleep stage for the 2 hours following treatment was determined and significance determined by t-test.

[2] = Safety and tolerability, ascending single-dose study; type: in vivo, human
Source text: In the ascending single-dose study, 52 AEs were considered to be related to the study drug, the most common of which was somnolence/sleepiness, drowsiness, and tiredness (15 of 16 subjects dosed with MK-1064), consistent with the intended pharmacological activity. […] In the PSG study, 13 of the 20 subjects enrolled reported ≥1 clinical AE. Of 24 clinical AEs reported, 18 were considered to be related to study treatment, all of which were mild or moderate in intensity. One report of transient sleep paralysis following MK-1064 250 mg was noted, while the most common MK-1064-related AEs were headache (3 subjects), nightmares (2 subjects) and dizziness (1 subject) (Supplementary Table 2).
as §1

[3] = Plasma exposure in dogs after oral dosing; type: in vivo, dog; settings: for Cmax / Tmax / AUC(0-t): beagle, dog, plasma

COc1ccc(CNC(=O)c2cc(-c3cncc(Cl)c3)cnc2-c2ccccn2)nc1OC [MK-1064, 5″-chloro-N-[(5,6-dimethoxypyridin-2-yl)methyl]-2,2′:5′, 3″-terpyridine-3′-carbo xamide]
cataplectic episodes in FECT (cataplexy): no cataplectic episodes; also recorded: cataplexy was not observed
mean time to complete the FECT (cataplexy; not significantly different from vehicle): 37.8 s
Cmax [1]: 0.37 to 8.28 µM
Tmax ([1]; read-out: median time of peak concentrations (Tmax)): 1 to 2 h
half-life ([1]; read-out: alpha phase half-life): 1.6 to 4 h
half-life ([1]; read-out: mean apparent terminal half-life): 6.8 to 11.1 h
active wake (with increases in NREM I, NREM II and REM sleep) (sleep/wake stages; 1 mg/kg oral, 1 hour following administration vs vehicle): Significant active wake reductions
REM sleep in the hour following administration (sleep/wake stages; 20 mg/kg oral, vs vehicle, increased at several later time points): not significantly increased
subjects who experienced headaches ([2]; ascending single-dose study): Nine
suspected serious adverse reactions ([2]; ascending single-dose study): no suspected serious adverse reactions were observed
AEs considered to be related to the study drug ([2]; ascending single-dose study, 5–250 mg): 52
subjects with somnolence/sleepiness, drowsiness, and tiredness ([2]; ascending single-dose study, subjects dosed with MK-1064): 15 of 16
tolerability ([2]; both Phase I studies, healthy male subjects): well tolerated
expected unbound drug levels at 1 hour (~Tmax) ([3]; 20 mg/kg oral): approximately 4.4 μM
Cmax ([3]; 1 mg/kg oral): 1 µM
Tmax ([3]; 1 mg/kg oral): 0.3 h
AUC(0-t) ([3]; 1 mg/kg oral, read-out: AUC0–24): 3.4 µM·h
Cmax ([3]; 20 mg/kg oral): 15.3 µM
Tmax ([3]; 20 mg/kg oral): 0.8 h
AUC(0-t) ([3]; 20 mg/kg oral, read-out: AUC0-24): 56.5 µM·h
